In one test the test system is KMS-11. Briefly: Cytostatic activity on human multiple myeloma cell line KMS-11 (WST-1). Particulars: for inhibition at 1 µM / inhibition at 10 µM: Homo sapiens, KMS-11, 72 h; for inhibition at 1 µM: read-out: cytostatic rate (%) KMS-11 (1 μmol/L); for inhibition at 10 µM: read-out: cytostatic rate (%) KMS-11 (10 μmol/L). The format is cell-based. The gist of the method: (§1)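 Cells pre-cultured 24 h at 37 °C, 5% CO2, then exposed 72 h to compound at final 1 or 10 μmol/L (0.1% DMSO). WST-1 added for 2 h, absorbance at 450 nm (ref 690 nm). Cytostatic rate = 100 minus relative growth, with DMSO control as 100% and blank as 0%.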
In general terms: Tetrazolium assays rely on reduction of a dye to a coloured formazan, in cell work by metabolically active cells.

Another test concerns Colo205. Briefly: Cytostatic activity on human colon cancer cell line Colo205 (WST-1). The format is cell-based. Particulars: for inhibition at 10 µM: Homo sapiens, COLO 205, 72 h; for cytostatic rate (%) Colo205 (10 μmol/L): 72 hours. As to the method: (§2) The cytostatic rates of the test compound on the human pancreatic cancer cell line AsPC-1 and the human colon cancer cell line Colo205 were determined in the following manner.
(§3) For culturing AsPC-1, RPMI 1640 medium containing 20% fetal bovine serum, 1 mmol/L sodium pyruvate, 10 mmol/L HEPES, 4.5 g/L glucose and penicillin/streptomycin (1:1). The Colo205 cell was cultured using RPMI 1640 medium containing 10% fetal bovine serum, 1 mmol/L sodium pyruvate, 10 mmol/L HEPES, 4.5 g/L glucose and penicillin/streptomycin (1:1) was used. Each 80 μL of the AsPC-1 cell having a concentration of 5×10^4 cells/mL (or the Colo205 having a concentration of 5×10^4 cells/mL) was inoculated to wells of a TC MICROWELL 96F plate (Nalge Nunc International, Catalog No. 167008) and was cultured in a 5% carbon dioxide gas incubator at 37° C. for 24 hours. Each 20 μL of a solution of the test compound in DMSO which was prepared to make the final concentration to 1 μmol/L or 10 μmol/L, was added to each well. Each 20 μL of DMSO was added to the control well and the blank well to a final concentration of 0.1%. After adding the test compound, the cell was incubated in a 5% carbon dioxide gas incubator at 37° C. for 72 hours except for the blank well. After adding 20 μL of WST-1 reagent which was diluted to 50% by RPMI medium to each well, the cells were further incubated at 37° C. for 2 hours. Then, the absorbances at 450 nm (reference wavelength: 690 nm) were determined with a microplate spectrophotometer SPECTRA max 340PC. The cytostatic rate (%) was then determined in the similar manner to the above multiple myeloma cell lines.

The subject of another test is NCI-H929. Briefly: Cytostatic activity on human multiple myeloma cell line NCI-H929 (WST-1). The format is cell-based. The settings on record: for inhibition at 1 µM / inhibition at 10 µM: Homo sapiens, NCI-H929, 72 h; for inhibition at 1 µM: read-out: cytostatic rate (%) H929 (1 μmol/L); for inhibition at 10 µM: read-out: cytostatic rate (%) H929 (10 μmol/L). The gist of the method: as §1

Another test concerns AsPC-1. Briefly: Cytostatic activity on human pancreatic cancer cell line AsPC-1 (WST-1). The format is cell-based. The settings on record: for inhibition at 10 µM: Homo sapiens, ASPC1, 72 h; for cytostatic rate (%) AsPC-1 (10 μmol/L): 72 hours. Here is the method: as §2, §3
The target of another test is T1, IGF-1R (Homo sapiens, UniProt P08069).
T1 construct: purchased Upstate Co. 14-465
T1 sequence (P08069 959-1367 limits assumed): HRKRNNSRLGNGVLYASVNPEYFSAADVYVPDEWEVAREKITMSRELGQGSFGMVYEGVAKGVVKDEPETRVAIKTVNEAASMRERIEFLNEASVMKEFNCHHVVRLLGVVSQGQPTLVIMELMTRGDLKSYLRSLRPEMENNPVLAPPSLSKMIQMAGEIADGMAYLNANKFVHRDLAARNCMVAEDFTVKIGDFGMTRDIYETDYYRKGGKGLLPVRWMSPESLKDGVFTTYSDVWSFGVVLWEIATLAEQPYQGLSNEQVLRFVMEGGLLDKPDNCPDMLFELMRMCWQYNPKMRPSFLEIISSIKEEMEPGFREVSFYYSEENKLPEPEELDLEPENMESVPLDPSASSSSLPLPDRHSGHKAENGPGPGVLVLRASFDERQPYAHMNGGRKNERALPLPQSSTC
Briefly: IGF-1R inhibitory activity (kinase reaction, time-resolved fluoroimmunoassay). Format: biochemical. Particulars: test compound 10 μmol/L. The gist of the method: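 Compounds were tested at a single 10 μmol/L concentration. Each was incubated with recombinant IGF-1R (200 μg/L), 10 mmol/L ATP, MgCl2/MnCl2 and Na3VO4 (pH 7.5) on immobilized poly(Glu-Tyr) peptide for 30 min at 24° C. Eu-anti-phosphotyrosine time-resolved fluorescence (340/615 nm) gave relative activity against no-compound and no-enzyme wells, reported as % inhibition.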

Where [1] appears, read: 10 μmol/L, read-out: cytostatic rate (%) Colo205 (10 μmol/L).
Setting [2] is: 10 μmol/L, read-out: cytostatic rate (%) AsPC-1 (10 μmol/L).
[3] abbreviates: IGF-1R active recombinant enzyme.
The mark [4] stands for this setting: KMS-11 cells, test compound 1 μmol/L, WST-1.
Setting [5] is: Colo205 cells, test compound 10 μmol/L, WST-1, read-out: cytostatic rate (%) Colo205 (10 μmol/L).
Where [6] appears, read: NCI-H929 cells, test compound 1 μmol/L, WST-1.
Where [7] appears, read: AsPC-1 cells, test compound 10 μmol/L, WST-1, read-out: cytostatic rate (%) AsPC-1 (10 μmol/L).

Structures can show the parent of a compound that is named as a salt. Where two headings read alike, the source gives them in different places.

Here are results for 15 compounds from patent publication US7605272B2, “IGF-1R inhibitor” (Kyowa Hakko Kirin Co., Ltd., priority 2005, dated 2009).

Turning to `Cc1ccsc1C(=O)Nc1cc(CN2CCN(CCO)CC2)ccc1/C=C/c1n[nH]c2ccccc12` [Compound 239, (E)-N-{5-[4-(2-hydroxyethyl)piperazin-1-ylmethyl]-2-[2-(1H-indazol-3-yl)vinyl]phenyl}-3-methylthiophene-2-carboxamide], the inhibition at 1 µM in the test with KMS-11 (1 μmol/L, 72 hours) is 152%; with NCI-H929 (1 μmol/L, 72 hours), 115%. Besides, the values for the inhibition at 10 µM in the test on Colo205 (setting [1]), in the test on AsPC-1 (setting [2]) and on IGF-1R (setting [3]) were 121%, 102% and 101%, respectively.
As for `Cc1ccsc1C(=O)Nc1cc(C(=O)N2CCN(S(C)(=O)=O)CC2)ccc1/C=C/c1n[nH]c2ccccc12` [Compound 222, (E)-N-{2-[2-(1H-indazol-3-yl)vinyl]-5-(4-methanesulfonylpiperazin-1-ylcarbonyl)phenyl}-3-methylthiophene-2-carboxamide hydrochloride], the inhibition at 1 µM in the test with KMS-11 (1 μmol/L, 72 hours) was 108%; in the test on NCI-H929 (1 μmol/L, 72 hours), 118%. Also, the inhibition at 10 µM in the test with Colo205 (setting [1]) is 123%; in the test on AsPC-1 (setting [2]), 114%; on IGF-1R (setting [3]), 98.7%.
With `Cc1ccsc1C(=O)Nc1cc(CN2CCN(CCOCCO)CC2)ccc1/C=C/c1n[nH]c2ccccc12` [Compound 318, (E)-N-{5-{4-[2-(2-hydroxyethoxy)ethyl]piperazin-1-ylmethyl}-2-[2-(1H-indazol-3-yl)vinyl]-phenyl}-3-methylthiophene-2-carboxamide], the inhibition at 1 µM in the test on KMS-11 (setting [4]) was determined as 102%; in the test on NCI-H929 (setting [6]) it was 122%. Moreover, the inhibition at 10 µM came out at 120% in the test with Colo205 (setting [5]), 103% in the test on AsPC-1 (setting [7]) and 94.7% at IGF-1R (setting [3]).
For `Cc1ccsc1C(=O)Nc1cc(CN2CCN(CC(C)(C)O)CC2)ccc1/C=C/c1n[nH]c2ccccc12` [Compound 312, (E)-N-{5-[4-(2-hydroxy-2-methylpropyl)piperazin-1-ylmethyl]-2-[2-(1H-indazol-3-yl)vinyl]phenyl}-3-methylthiophene-2-carboxamide], in that order: 108%, 115%, 120%, 101% and 105%.
`O=C(Nc1ccccc1/C=C/c1n[nH]c2ccccc12)c1cc2ccccc2s1` [Compound 46, (E)-N-{2-[2-(1H-indazol-3-yl)vinyl]phenyl}benzo[b]thiophene-2-carboxamide]: the inhibition at 10 µM was found to be 115% with KMS-11 (10 μmol/L, 72 hours); 112% in the test on Colo205 (setting [1]); 118% in the test with NCI-H929 (10 μmol/L, 72 hours); 120% in the test on AsPC-1 (setting [2]); 97.8% on IGF-1R (setting [3]).
Take `COCCN(CCN(C)C)C(=O)c1ccc(/C=C/c2n[nH]c3ccccc23)c(NC(=O)c2sccc2C)c1` [Compound 241, (E)-N-{5-[N-(2-dimethylaminoethyl)-N-(2-methoxyethyl)carbamoyl]-2-[2-(1H-indazol-3-yl)vinyl]phenyl}-3-methylthiophene-2-carboxamide hydrochloride]: the inhibition at 1 µM in the test on KMS-11 (1 μmol/L, 72 hours) was determined as 118%; in the test with NCI-H929 (1 μmol/L, 72 hours), 112%. The inhibition at 10 µM came to 121% in the test on Colo205 (setting [1]), 104% in the test on AsPC-1 (setting [2]) and 101% at IGF-1R (setting [3]).
As to `Cc1ccsc1C(=O)Nc1cc(C(=O)N2CCOCC2)ccc1/C=C/c1n[nH]c2ccccc12.Cl` [Compound 115, (E)-N-{2-[2-(1H-indazol-3-yl)vinyl]-5-(morpholin-4-ylcarbonyl)phenyl}-3-methylthiophene-2-carboxamide hydrochloride], the “cytostatic rate (%) KMS-11 (10 μmol/L)” value with KMS-11 (10 μmol/L, 72 hours) stood at 115.5%. Moreover, the “cytostatic rate (%) Colo205 (10 μmol/L)” value in the test with Colo205 (10 μmol/L) is 121.6%. Moreover, in the test with NCI-H929 (10 μmol/L, 72 hours), the “cytostatic rate (%) H929 (10 μmol/L)” value was 120.0%. Further, the “cytostatic rate (%) AsPC-1 (10 μmol/L)” value in the test with AsPC-1 (10 μmol/L) stood at 108.7%. Also, at IGF-1R, the “inhibitory activity (%) at 10 μmol/L” value stood at 100.1%.
As to `COc1cccc(/C=C/c2n[nH]c3ccccc23)c1NC(=O)c1cccn1C` [Compound 109, (E)-N-{2-[2-(1H-indazol-3-yl)vinyl]-6-methoxyphenyl}-1-methyl-1H-pyrrole-2-carboxamide], the inhibition at 10 µM amounted to 117% with KMS-11 (10 μmol/L, 72 hours); 123% in the test with Colo205 (setting [1]); 116% with NCI-H929 (10 μmol/L, 72 hours); 114% in the test with AsPC-1 (setting [2]); 103% against IGF-1R.
`Nc1cccc2c1C(=O)N(c1ccccc1/C=C/c1n[nH]c3ccccc13)C2=O` [Compound 194, (E)-4-amino-2-{2-[2-(1H-indazol-3-yl)vinyl]phenyl}isoindole-1,3-dione]: the inhibition at 10 µM came to 143% with KMS-11 (10 μmol/L, 72 hours); 97.9% with Colo205 (setting [1]); 119% with NCI-H929 (10 μmol/L, 72 hours); 75.3% in the test with AsPC-1 (setting [2]); 102% at IGF-1R (setting [3]).
In the case of `Nc1ccc2c(c1)C(=O)N(c1cc3c(cc1/C=C/c1n[nH]c4ccccc14)OCO3)C2=O` [Compound 153, (E)-5-amino-2-{6-[2-(1H-indazol-3-yl)vinyl]benzo[1,3]dioxol-5-yl}isoindole-1,3-dione], the inhibition at 10 µM with KMS-11 (10 μmol/L, 72 hours) is 129%; in the test on Colo205 (setting [1]) it was 114%; in the test on NCI-H929 (10 μmol/L, 72 hours), 122%; in the test on AsPC-1 (setting [2]) it was 77%; on IGF-1R (setting [3]) it was 99.8%.
Take `Nc1cccc2c1C(=O)N(c1cc(C(=O)N3CCOCC3)ccc1/C=C/c1n[nH]c3ccccc13)C2=O` [Compound 288, (E)-4-amino-N-{2-[2-(1H-indazol-3-yl)vinyl]-5-(morpholin-4-ylcarbonyl)phenyl}isoindole-1,3-dione]: the inhibition at 1 µM with KMS-11 (1 μmol/L, 72 hours) is 109%; in the test on NCI-H929 (1 μmol/L, 72 hours), 118%. Further, the results for the inhibition at 10 µM with Colo205 (setting [1]), with AsPC-1 (setting [2]) and at IGF-1R (setting [3]) were 120%, 94.5% and 97.9%, respectively.
For `Cc1ccsc1C(=O)Nc1cc(CNCCN2CCOCC2)ccc1/C=C/c1n[nH]c2ccccc12` [Compound 245, (E)-N-{2-[2-(1H-indazol-3-yl)vinyl]-5-[2-(morpholin-4-yl)ethylaminomethyl]phenyl}-3-methylthiophene-2-carboxamide], in that order: 118%, 126%, 121%, 102% and 99.9%.
As for `Cc1ccsc1C(=O)Nc1cc(N2CCOCC2)ccc1/C=C/c1n[nH]c2ccccc12` [Compound 247, (E)-N-{2-[2-(1H-indazol-3-yl)vinyl]-5-morpholin-4-ylphenyl}-3-methylthiophene-2-carboxamide monohydrochloride], the inhibition at 1 µM in the test with KMS-11 (1 μmol/L, 72 hours) stood at 133%; with NCI-H929 (1 μmol/L, 72 hours), 127%. In addition, the inhibition at 10 µM in the test on Colo205 (setting [1]) amounted to 123%; in the test with AsPC-1 (setting [2]), 117%; on IGF-1R (setting [3]) it was 102%.
For the compound `Cc1ccsc1C(=O)Nc1cc(CN2CCNCC2)ccc1/C=C/c1n[nH]c2ccccc12` [Compound 242], the “cytostatic rate (%) KMS-11 (1 μmol/L)” value in the test on KMS-11 (1 μmol/L, 72 hours) stood at 106.8%. The “cytostatic rate (%) Colo205 (10 μmol/L)” value with Colo205 (10 μmol/L) stood at 119.7%. In the test on NCI-H929 (1 μmol/L, 72 hours), the “cytostatic rate (%) H929 (1 μmol/L)” value worked out at 111.1%. Moreover, the “cytostatic rate (%) AsPC-1 (10 μmol/L)” value in the test with AsPC-1 (10 μmol/L) is reported as 87.1%. For the same compound, on IGF-1R (setting [3]), the “inhibitory activity (%) at 10 μmol/L” value is given as 102.1%.
On to `O=C(Nc1ccccc1/C=C/c1n[nH]c2ccccc12)c1ccccc1` [Compound 85, (E)-N-{2-[2-(1H-indazol-3-yl)vinyl]phenyl}benzamide], for which the inhibition at 10 µM was 124% with KMS-11 (10 μmol/L, 72 hours); 116% in the test on Colo205 (setting [1]); 134% with NCI-H929 (10 μmol/L, 72 hours); 125% in the test with AsPC-1 (setting [2]); 99.5% against IGF-1R.
